Assay results from US20240016777A1, “COMPOUNDS AND METHODS FOR TREATING VIRAL INFECTIONS” (priority 2020, published 2024).

The compounds below were run against SARS-CoV-2 M^pro (Severe acute respiratory syndrome coronavirus 2 (2019-nCoV) (SARS-CoV-2), UniProt P0DTD1) (assay: biochemical). Conditions: not given.

| Structure (SMILES) | Mpro inhibitory activity (comparison in words) |
| --- | --- |
| COc1cc(O)c2c(=O)cc(-c3ccc(OC)c(-c4c(O)cc(O)c5c(=O)cc(-c6ccc(O)cc6)oc45)c3)oc2c1 [Ginkgetin] | comparable to amentoflavone |

Same assay, conditions: compound at 17 μM, duplicates, 20 min pre-incubation

| Structure (SMILES) | Activity (% enzyme activity by fluorescence relative to initial enzyme activity) |
| --- | --- |
| COc1cc2c(c3c1CC[C@@H](c1ccccc1)O3)[C@H]1c3c(cc(O)c(C)c3OC)O[C@](c3ccccc3)(O2)[C@@H]1O [Dracoflavan B1] | ++ (enzyme activity as indicated by fluorescence measurements ≥10% and <80%) |
| C=C(C)[C@H](CC=C(C)C)Cc1c(O)cc(O)c2c1O[C@H](c1ccc(O)cc1OC)CC2=O [Isokurarinone] | ++ (enzyme activity as indicated by fluorescence measurements ≥10% and <80%) |
| O=c1cc(-c2ccc(O)cc2)oc2c([C@@H]3O[C@H](CO)[C@@H](O)[C@H](O)[C@H]3O)c(O)c([C@@H]3OC[C@H](O)[C@H](O)[C@H]3O)c(O)c12 [Isoschaftoside] | ++ (enzyme activity as indicated by fluorescence measurements ≥10% and <80%) |

Same assay, conditions: compound at 17 μM, duplicates, 20 min pre-incubation; read-out: Activity (% enzyme activity by fluorescence relative to initial enzyme activity)

| Structure (SMILES) | remaining activity at 17 µM [%] |
| --- | --- |
| CC(C)=CCc1cc([C@@H]2CC(=O)c3c(O)cc(O)c(CC=C(C)C)c3O2)c(O)cc1O [Euchrestaflavanone B] | 10 to 80 |
| O=c1c(-c2ccc(O)cc2)coc2cc(O)cc(O)c12 [Genistein] | > 80 |
| COc1cc(O)c(CC=C(C)C)c2c1C(=O)C[C@@H](c1ccc(O)cc1)O2 [Isoxanthohumol] | > 80 |
| O=c1c(O)c(-c2ccc(O[C@@H]3O[C@H](CO)[C@@H](O)[C@H](O)[C@H]3O)cc2)oc2cc(O)cc(O)c12 [Kaempferol-4′-O-beta-D-glucopyranoside] | 10 to 80 |
| O=c1c(O)c(-c2ccc(O)cc2)oc2cc(O)cc(O)c12 [Kaempferol] | > 80 |
| C=C(C)[C@H](CC=C(C)C)Cc1c(O)cc(O)c2c(=O)c(O)c(-c3ccc(O)cc3O)oc12 [Kushenol C] | 10 to 80 |

Same assay, conditions: compounds evaluated at 0.015-300 μM; read-out: IC50

| Structure (SMILES) | IC50 [µM] |
| --- | --- |
| COc1cc2c(c3c1CC[C@@H](c1ccccc1)O3)[C@H]1c3c(cc(O)c(C)c3OC)O[C@](c3ccccc3)(O2)[C@@H]1O [Dracoflavan B1] | 17 |
| CC(C)=CCc1cc([C@@H]2CC(=O)c3c(O)cc(O)c(CC=C(C)C)c3O2)c(O)cc1O [Euchrestaflavanone B] | 96 |
| O=c1cc(-c2ccc(O)cc2)oc2c([C@@H]3O[C@H](CO)[C@@H](O)[C@H](O)[C@H]3O)c(O)c([C@@H]3OC[C@H](O)[C@H](O)[C@H]3O)c(O)c12 [Isoschaftoside] | 20 |
| O=c1c(O)c(-c2ccc(O[C@@H]3O[C@H](CO)[C@@H](O)[C@H](O)[C@H]3O)cc2)oc2cc(O)cc(O)c12 [Kaempferol-4′-O-beta-D-glucopyranoside] | 12 |

Same assay, conditions: read-out: Activity (% enzyme activity by fluorescence relative to initial enzyme activity), compound at 17 μM, duplicates, 20 min pre-incubation

| Structure (SMILES) | remaining activity at 17 µM [%] |
| --- | --- |
| COc1ccc(-c2oc3c(CC=C(C)C)c(O[C@@H]4O[C@H](CO)[C@@H](O)[C@H](O)[C@H]4O)cc(O)c3c(=O)c2O[C@@H]2O[C@@H](C)[C@H](O)[C@@H](O[C@@H]3O[C@H](CO)[C@@H](O)[C@H](O)[C@H]3O)[C@H]2O)cc1 [Epimedin A1] | > 80 |
| COc1ccc(-c2oc3c(CC=C(C)C)c(O[C@@H]4O[C@H](CO)[C@@H](O)[C@H](O)[C@H]4O)cc(O)c3c(=O)c2O[C@@H]2O[C@@H](C)[C@H](O)[C@@H](O)[C@H]2O[C@@H]2O[C@H](CO)[C@@H](O)[C@H](O)[C@H]2O)cc1 [Epimedin A] | 10 to 80 |
| COc1ccc(-c2oc3c(CC=C(C)C)c(O[C@@H]4O[C@H](CO)[C@@H](O)[C@H](O)[C@H]4O)cc(O)c3c(=O)c2O[C@@H]2O[C@@H](C)[C@H](O[C@@H]3OC[C@@H](O)[C@H](O)[C@H]3O)[C@@H](O)[C@H]2O)cc1 [Epimedin B1] | 10 to 80 |
| COc1ccc(-c2oc3c(CC=C(C)C)c(O[C@@H]4O[C@H](CO)[C@@H](O)[C@H](O)[C@H]4O)cc(O)c3c(=O)c2O[C@@H]2O[C@@H](C)[C@H](O)[C@@H](O)[C@H]2O[C@@H]2OC[C@@H](O)[C@H](O)[C@H]2O)cc1 [Epimedin B] | 10 to 80 |
| COc1ccc(-c2oc3c(CC=C(C)C)c(O[C@@H]4O[C@H](CO)[C@@H](O)[C@H](O)[C@H]4O)cc(O)c3c(=O)c2O[C@@H]2O[C@@H](C)[C@H](O)[C@@H](O)[C@H]2O[C@@H]2O[C@@H](C)[C@H](O)[C@@H](O)[C@H]2O)cc1 [Epimedin C] | 10 to 80 |
| COc1ccc(-c2oc3c(CC=C(C)C)c(O[C@@H]4O[C@H](CO)[C@@H](O)[C@H](O)[C@H]4O)cc(O)c3c(=O)c2O[C@@H]2O[C@@H](C)[C@H](OC(C)=O)[C@@H](O)[C@H]2O[C@@H]2O[C@H](COC(C)=O)[C@@H](O)[C@H](OC(C)=O)[C@H]2O)cc1 [Epimedin K] | > 80 |
| CC(C)=CCc1cc(-c2cc(=O)c3c(O)cc(O)c(CC=C(C)C)c3o2)cc(O)c1O [Epimedokoreanin B] | > 80 |
| CC(C)=CCc1c(O)cc(O)c2c(=O)cc(-c3cc(O)c4c(c3)C(O)C(C(C)(C)O)O4)oc12 (stereo not drawn) [Epimedokoreanin C] | > 80 |
| CC(C)=CCc1c(O[C@@H]2O[C@H](CO)[C@@H](O)[C@H](O)[C@H]2O)cc(O)c2c(=O)c(O[C@@H]3O[C@@H](C)[C@H](O)[C@@H](O)[C@H]3O)c(-c3ccc(O)cc3)oc12 [Epimedoside A] | > 80 |
| CC(C)=CCc1c(O)c(CC=C(C)C)c2occc(=O)c2c1O [Eriosemation] | > 80 |
| C=C(C)C(O)Cc1c(O)c(CC=C(C)C)c(O)c2c(=O)c(-c3ccc(O)cc3)coc12 (stereo not drawn) [Erysenegalensein E] | > 80 |
| CC(C)=CCc1c(O)cc(O)c2c1O[C@H](c1ccc3c(c1)C=CC(C)(C)O3)CC2=O [Euchrenone A10] | > 80 |
| CC(C)=CCc1cc(-c2coc3c(CC=C(C)C)c(O)c(CC=C(C)C)c(O)c3c2=O)ccc1O [Euchrenone B1] | > 80 |
| CC(C)=CCc1cc([C@@H]2CC(=O)c3c(O)cc(O)c(CC=C(C)C)c3O2)ccc1O [Euchrestaflavanone A] | > 80 |
| CC(C)=CCc1c(O[C@@H]2O[C@H](CO)[C@@H](O)[C@H](O)[C@H]2O)cc(O)c2c1O[C@H](c1ccc(O)cc1)CC2=O [Flavaprin] | > 80 |
| COc1cc2occ(-c3ccc(O)cc3)c(=O)c2c(O)c1CC=C(C)C [Gancaonin G] | > 80 |
| COc1ccc(-c2coc3c(CC=C(C)C)c(O)cc(O)c3c2=O)cc1 [Gancaonin M] | > 80 |
| COc1ccc(-c2coc3cc(O)c(CC=C(C)C)c(O)c3c2=O)c(O)c1 [Gancaonin N] | > 80 |
| CC(C)=CCc1c(O)cc(O)c2c1O[C@H](c1ccccc1)CC2=O [Glabranin] | > 80 |
| CC(C)=CCc1c(O)cc(O)c2c1O[C@H](c1ccccc1)[C@@H](O)C2=O [Glepidotin B] | > 80 |
| COc1c(CC=C(C)C)c(O)cc(O)c1-c1coc2cc(O)ccc2c1=O [Glicoricone] | > 80 |
| CC(C)=CCc1cc(-c2oc3cc(O)c(CC=C(C)C)c(O)c3c(=O)c2O)ccc1O [Glyasperin A] | > 80 |
| COc1c(CC=C(C)C)c(O)cc2c1CC(c1ccc(O)cc1O)CO2 (stereo not drawn) [Glyasperin C] | > 80 |

| Structure (SMILES) | remaining activity at 17 µM [%] |
| --- | --- |
| COc1cc2c(c(OC)c1CC=C(C)C)C[C@H](c1ccc(O)cc1O)CO2 [Glyasperin D] | 10 to 80 |
| COc1ccc(-c2oc3c(CC=C(C)C)c(O[C@@H]4O[C@H](CO)[C@@H](O)[C@H](O)[C@H]4O)cc(O)c3c(=O)c2O[C@@H]2O[C@@H](C)[C@H](O)[C@@H](O)[C@H]2O)cc1 [Icariin] | 10 to 80 |
| COc1ccc(-c2oc3c(CC=C(C)C)c(O[C@@H]4O[C@H](CO)[C@@H](O)[C@H](O)[C@H]4O)cc(O)c3c(=O)c2O)cc1 [Icariside I] | > 80 |
| COc1ccc(-c2oc3c(CC=C(C)C)c(O)cc(O)c3c(=O)c2O)cc1 [Icaritin] | > 80 |
| CC(C)=CCc1c(O)cc(O)c2c(=O)c(O[C@@H]3O[C@@H](C)[C@H](O)[C@@H](O)[C@H]3O[C@@H]3OC[C@@H](O)[C@H](O)[C@H]3O)c(-c3ccc(O)cc3)oc12 [Ikarisoside F] | 10 to 80 |
| CC(C)=CCc1cc(-c2coc3cc(O)c(CC=C(C)C)c(O)c3c2=O)cc(O)c1O [Imbricataflavone A] | > 80 |
| COc1cc(O)c2c(=O)c(O)c(-c3ccc(O)cc3)oc2c1CC=C(C)C [Isoanhydroicaritin] | > 80 |
| CC(C)=CCc1c(O)ccc2c1O[C@H](c1ccc(O)cc1)CC2=O [Isobavachin] | > 80 |
| CC(C)=CCc1c(O)cc2occ(-c3ccc4c(c3)C=CC(C)(C)O4)c(=O)c2c1O [Isochandalone] | > 80 |
| C=C(C)C(O)Cc1c(O)c(CC=C(C)C)c2occ(-c3ccc(O)cc3)c(=O)c2c1O (stereo not drawn) [Isoerysenegalensein E] | > 80 |
| CC(C)=CCc1cc(-c2oc3cc(O)cc(O)c3c(=O)c2O)ccc1O [Isolicoflavonol] | 10 to 80 |
| CC(C)=CCc1cc(-c2coc3cc(O)cc(O)c3c2=O)ccc1O [Isowighteone] | > 80 |
| CC(C)=CCc1cc([C@@H]2CCc3ccc(O)cc3O2)c(CC=C(C)C)c(O)c1O [Kazinol A] | > 80 |
| CC(C)=CCc1c([C@@H]2CCc3ccc(O)cc3O2)cc2c(c1O)OC(C)(C)C=C2 [Kazinol B] | > 80 |
| CC(C)=CCc1c([C@H]2CCc3ccc(O)cc3O2)ccc(O)c1O [Kazinol U] | > 80 |
| COc1ccc(-c2oc3c(CC=C(C)C)c(O)cc(O)c3c(=O)c2O[C@@H]2O[C@@H](C)[C@H](OC(C)=O)[C@@H](O[C@@H]3O[C@H](COC(C)=O)[C@@H](O)[C@H](O)[C@H]3O)[C@H]2O)cc1 [Korepimedoside A] | 10 to 80 |
| C=C(C)[C@H](CCC(C)(C)O)Cc1c(O)cc(OC)c2c1O[C@H](c1ccc(O)cc1O)CC2=O [Kurarinol] | > 80 |
| C=C(C)[C@H](CC=C(C)C)Cc1c(O)cc(OC)c2c1O[C@H](c1ccc(O)cc1O)CC2=O [Kurarinone] | > 80 |
| C=C(C)[C@H](CC=C(C)C)Cc1c(O)cc(O)c2c1O[C@H](c1ccccc1O)CC2=O [Kushenol A] | > 80 |
| C=C(C)[C@H](CC=C(C)C)Cc1c(O)c(CC=C(C)C)c(O)c2c1O[C@H](c1ccc(O)cc1O)CC2=O [Kushenol B] | > 80 |
| CC(C)=CCc1c(O)c(CC=C(C)C)c2c(c1O)C(=O)C[C@@H](c1ccc(O)cc1O)O2 [Kushenol E] | 10 to 80 |
| C=C(C)[C@H](CC=C(C)C)Cc1c(O)cc(O)c2c1O[C@H](c1ccc(O)cc1O)CC2=O [Kushenol F] | > 80 |
| C=C(C)[C@H](CC=C(C)C)Cc1c(O)cc(OC)c2c1O[C@H](c1ccc(O)cc1O)[C@@H](O)C2=O [Kushenol I] | > 80 |
